The text below walks through data of ChEMBL document CHEMBL1137667, “Pyrrolidine dithiocarbamate and diethyldithiocarbamate are active against growing and nongrowing persister Mycobacterium tuberculosis” (2007).

The structures appear in SMILES notation. In brackets after ≈: the same amount, converted by molar mass. Activity calls are given as the source filed them. The rule behind the calls is not given here.

Assay [1] concerns Mycobacterium tuberculosis. The experiment in a line: Antimicrobial activity against 3 weeks old culture of Mycobacterium tuberculosis H37Ra assessed as colony forming unit in hypoxic condition at 3.3 ug/ml for 3 hrs. The class given is functional.
For assay [2], the system named is Mycobacterium tuberculosis. The experiment in a line: Antimicrobial activity against 3 weeks old culture of Mycobacterium tuberculosis H37Ra assessed as colony forming unit at 3.3 ug/ml for 3 days at pH 5.5. The class given is functional.
Assay [3] has as its system Mycobacterium tuberculosis. Briefly: Antimicrobial activity against 1 month old culture of Mycobacterium tuberculosis H37Ra assessed as colony forming unit at 10 ug/ml for 3 days at pH 5.5. The class given is functional.
Assay [4] has as its system Mycobacterium tuberculosis. Briefly: Antimicrobial activity against Mycobacterium tuberculosis H37Rv assessed as drug concentration required to kill 99% of the inoculum. The class given is functional.
Another assay has as its system Escherichia coli. Briefly: Antimicrobial activity against Escherichia coli DH5alpha. Format: functional.
The subject of assay [5] is Mycobacterium tuberculosis. The experiment in a line: Antimicrobial activity against 3 weeks old culture of Mycobacterium tuberculosis H37Ra assessed as colony forming unit at 3.3 ug/ml for 3 days at pH 7. The class given is functional.
Assay [6] has as its system Mycobacterium tuberculosis. The experiment in a line: Antimicrobial activity against 3 weeks old culture of Mycobacterium tuberculosis H37Ra assessed as colony forming unit in aerobic condition at 3.3 ug/ml for 3 hrs. Format: functional.
The test system of assay [7] is Mycobacterium tuberculosis. Briefly: Antimicrobial activity against 2 months old culture of Mycobacterium tuberculosis H37Ra assessed as colony forming unit at 3.3 ug/ml for 3 days at pH 7. The class given is functional.
The test system of assay [8] is Mycobacterium tuberculosis. Briefly: Antimicrobial activity against 2 months old culture of Mycobacterium tuberculosis H37Ra assessed as colony forming unit at 3.3 ug/ml for 3 days at pH 5.5. The class given is functional.
For assay [9], the system named is Mycobacterium tuberculosis. Briefly: Antimicrobial activity against 2 months old culture of Mycobacterium tuberculosis H37Ra assessed as colony forming unit at 5 ug/ml for 3 days at pH 5.5. The class given is functional.
The test system of assay [10] is Mycolicibacterium smegmatis. The experiment in a line: Antimicrobial activity against Mycobacterium smegmatis mc26. The class given is functional.
For assay [11], the system named is Mycobacterium tuberculosis. Briefly: Antimicrobial activity against Mycobacterium tuberculosis H37Rv. Format: functional.
Assay [12] concerns Mycobacterium tuberculosis. The experiment in a line: Antimicrobial activity against 3 weeks old culture of Mycobacterium tuberculosis H37Ra assessed as colony forming unit in hypoxic condition at 4.5 ug/ml for 3 hrs. The class given is functional.
The subject of assay [13] is Mycobacterium tuberculosis. The experiment in a line: Antimicrobial activity against 3 weeks old culture of Mycobacterium tuberculosis H37Ra assessed as colony forming unit at 4.5 ug/ml for 3 days at pH 7. The class given is functional.
Assay [14] concerns Mycobacterium tuberculosis. Briefly: Antimicrobial activity against 2 months old culture of Mycobacterium tuberculosis H37Ra assessed as colony forming unit at 4.5 ug/ml for 3 days at pH 5.5. Format: functional.
Assay [15] deals with Mycobacterium tuberculosis. The experiment in a line: Antimicrobial activity against Mycobacterium tuberculosis infected in human monocytes. The class given is functional.
Assay [16] deals with Mycobacterium tuberculosis. Briefly: Antimicrobial activity against 2 months old culture of Mycobacterium tuberculosis H37Ra assessed as colony forming unit at 4.5 ug/ml for 3 days at pH 7. Format: functional.
The subject of assay [17] is Mycobacterium tuberculosis. The experiment in a line: Antimicrobial activity against 3 weeks old culture of Mycobacterium tuberculosis H37Ra assessed as colony forming unit in aerobic condition at 4.5 ug/ml for 3 hrs. The class given is functional.
For assay [18], the system named is Mycobacterium tuberculosis. The experiment in a line: Antimicrobial activity against 3 weeks old culture of Mycobacterium tuberculosis H37Ra assessed as colony forming unit at 4.5 ug/ml for 3 days at pH 5.5. Format: functional.
The test system of assay [19] is Mycobacterium tuberculosis. The experiment in a line: Antimicrobial activity against 3 weeks old culture of Mycobacterium tuberculosis H37Rv assessed as 1:2 serum inhibitory titers treated with blood from 100 mg/kg, po dosed Swiss mouse collected after 2 hrs. Format: functional, organism-based. Set-up: dose 100 mg/kg.
For assay [20], the system named is Mycobacterium tuberculosis. Briefly: Antimicrobial activity against 3 weeks old culture of Mycobacterium tuberculosis H37Rv assessed as 1:4 serum inhibitory titers treated with blood from 100 mg/kg, po dosed Swiss mouse collected after 2 hrs. The class given is functional, organism-based. Also noted: dose 100 mg/kg.
Assay [21] relates to Mycobacterium tuberculosis. The experiment in a line: Antimicrobial activity against 2 weeks old culture of Mycobacterium tuberculosis H37Ra assessed as colony forming unit at 100 ug/ml for 3 days at pH 5.5. The class given is functional.
Assay [22] relates to Mycobacterium tuberculosis. The experiment in a line: Antimicrobial activity against 2 months old culture of Mycobacterium tuberculosis H37Ra assessed as colony forming unit at 100 ug/ml for 3 days at pH 5.5. The class given is functional.
Assay [23] has as its system Mycobacterium tuberculosis. The experiment in a line: Antimicrobial activity against 3 weeks old culture of Mycobacterium tuberculosis H37Ra assessed as colony forming unit in aerobic condition at 10.3 ug/ml for 3 hrs. The class given is functional.
For assay [24], the system named is Mycobacterium tuberculosis. Briefly: Antimicrobial activity against 3 weeks old culture of Mycobacterium tuberculosis H37Ra assessed as colony forming unit in hypoxic condition at 10.3 ug/ml for 3 hrs. The class given is functional.
Assay [25] has as its system Mycobacterium tuberculosis. The experiment in a line: Antimicrobial activity against 3 weeks old culture of Mycobacterium tuberculosis H37Ra assessed as colony forming unit in aerobic condition at 2 ug/ml for 3 hrs. Format: functional.
The subject of assay [26] is Mycobacterium tuberculosis. Briefly: Antimicrobial activity against 3 weeks old culture of Mycobacterium tuberculosis H37Ra assessed as colony forming unit in hypoxic condition at 2 ug/ml for 3 hrs. The class given is functional.
Assay [27] has as its system Mycobacterium tuberculosis. Briefly: Antimicrobial activity against 2 months old culture of Mycobacterium tuberculosis H37Ra assessed as colony forming unit at 10 ug/ml for 3 days at pH 5.5. Format: functional.
For assay [28], the system named is Mycobacterium tuberculosis. The experiment in a line: Antimicrobial activity against 3 weeks old culture of Mycobacterium tuberculosis H37Rv assessed as 1:16 serum inhibitory titers treated with blood from 25 mg/kg, po dosed Swiss mouse collected after 1 hrs. Format: functional, organism-based. Set-up: dose 25 mg/kg.

`S=C(S)N1CCCC1` [PYRROLIDINE DITHIOCARBAMATE]: the log10CFU/ml was 7.1 in [1]; 0.89 in assay [2]; 0.06 in assay [3]; 2.65 in assay [5]; 6.19 in assay [6]; 0.94 in assay [7]. Besides, the results for the log10CFU/ml in assay [8] and in [9] were 0.13 and 0.42, respectively. Besides, the Activity in assay [4] was 0.5 µg/mL. For the same compound, the MIC – broadly, the least concentration at which growth counts as inhibited – against Escherichia coli was 64 µg/mL (≈ 435 µM); in assay [10], 16 µg/mL (≈ 109 µM); in assay [11], 0.125 µg/mL (≈ 0.849 µM). In addition, the MBC (in general, the lowest tested concentration that kills the bacteria rather than only halting them) in assay [11] worked out at 0.5 µg/mL (≈ 3.4 µM).

Consider `CCN(CC)C(=S)[S-].[Na+]` [DITIOCARB SODIUM], for which the log10CFU/ml in assay [3] came to 0.14; in [12] it was 7.22; in assay [13], 2.07; in assay [14], 3.18; in assay [16] it was 1.73; in assay [17], 6.03. For the same compound, the log10CFU/ml is 1.28 in assay [18] and 0.96 in [9]. The MIC in [15] is 1 µg/mL; in [11], 4 µg/mL. Further, the outcome in assay [19] and in assay [20] was Active. The MBC in assay [11] was found to be 8 µg/mL.

Turning to `NC(=O)c1cnccn1` [PYRAZINAMIDE], the log10CFU/ml in assay [21] was 0.26; in assay [22], 0.08.

On to `C(=NC1CCCCC1)=NC1CCCCC1` [DICYCLOHEXYLCARBODIIMIDE], for which the log10CFU/ml in [23] amounted to 7.43; in assay [24] it was 7.37.

For `CO[C@H]1/C=C/O[C@@]2(C)Oc3c(C)c(O)c4c(O)c(c(/C=N/N5CCN(C)CC5)c(O)c4c3C2=O)NC(=O)/C(C)=C\C=C\[C@H](C)[C@H](O)[C@@H](C)[C@@H](O)[C@@H](C)[C@H](OC(C)=O)[C@@H]1C` [RIFAMPIN], the log10CFU/ml was found to be 4.63 in assay [25], 6.36 in assay [26] and 1.32 in assay [27].

As for `CCN(CC)C(=S)SSC(=S)N(CC)CC` [DISULFIRAM], inhibition of growth in [11] (MIC) required 8 µg/mL (≈ 27 µM).

For `NNC(=O)c1ccncc1` [ISONIAZID], in assay [4], the Activity stood at 0.25 µg/mL. Further, the outcome in [28] was Active. In assay [11], the MBC amounted to 0.12 µg/mL (≈ 0.875 µM) and 0.06 µg/mL (≈ 0.438 µM) was the least that counted as inhibitory (MIC).
